Values quoted from earlier work, collected in patent US20240335440A1, “COMBINATION THERAPY COMPRISING A PKC INHIBITOR AND A C-MET INHIBITOR” (IDEAYA BIOSCIENCES, INC., priority 2021, published 2024).
Where two headings read alike, the source gives them in different places. Marks after values point to notes of the source that are not given here.

Key:
[1] = test system: metastatic uveal melanoma (MUM); conditions: First-Line MUM (n = 31); oral capsules QD
[2] = test system: metastatic uveal melanoma (MUM); conditions: Second-Line + MUM (n = 127)

Compound | Tolerability (Grade ≥3 Drug-related AE) [1] [%] | Tolerability (Grade ≥3 Drug-related AE) ([2]; HLA-A2-0201 patients, IV infusion weekly) [%] | % Pts with tumor shrinkage ([2]; independent review) [%^#] | Overall response rate by RECIST 1.1 ([2]; independent review) [%^#] | Progression free survival (mPFS) ([2]; independent review) [mo.^#]
COc1cc2nccc(Oc3ccc(NC(=O)C4(C(=O)Nc5ccc(F)cc5)CC4)cc3)c2cc1OC [Cabozantinib] | 51.6 | – | – | – | –
Tebentafusp: HLA-A2-0201 bi-specific AB, IV infusion (weekly), IMCgp100-102 study | – | 46.5 | 44 | 4.7 | 2.8
